Assays:
corn [1] = assay: Example 20, Procedure II: Herbicide No. 1 + EPTC or ERADICANE EXTRA with Antidote Nos. 5 and 15; type: in vivo
Protocol: Containers were filled and compacted with a fumigated silt loam top soil to a depth of about 1.3 cm from the top of the container. A first container was designated as an untreated control, a second container was designated as a herbicide control, and a third container was designated as a herbicide + antidote test container. Each of the containers was seeded with a crop species. A measured amount of herbicide dispersed or dissolved in acetone was applied to a measured quantity of soil. To this same quantity of soil treated with herbicide, there was added a measured amount of antidote dispersed or dissolved in acetone. The quantity of soil treated with the herbicide and antidote was thoroughly mixed to incorporate the herbicide and antidote in the soil uniformly. The seed bed in the third container of soil was covered with the soil treated with the herbicide and antidote and the container was leveled. For each test series, the seed beds of the first and second containers were likewise covered by soil layers. the cover layer of the first container was not treated with herbicide or antidote.
The containers were then placed on a bench in a greenhouse and sub-irrigated as required for the duration of the test. […] Plant response is measured in terms of percent injury. Antidote efficacy is indicated as the difference in plant injury by the herbicide(s) without the antidote and with the antidote.
This procedure is the same as Procedure I, but modified in the manner that after incorporation of the chemicals (herbicide and antidote) the containers with the covered seedbed were treated with an initial overhead irrigation equivalent to 0.6 cm rainfall, then subsequently sub-irrigated as required on greenhouse benches.
This example describes experiments designed to test two generally efficacious antidotal compounds, i.e., Antidote Nos. 5 and 15, against the herbicidal action of the sulfonylurea compound, Herbicide No. 1, and the commercial herbicides EPTC (Herbicide No. 4) and ERADICANE® EXTRA (EPTC + R-29148, Antidote No. 5). Procedure II above was used in conducting these experiments. Formulations of EPTC and ERADICANE EXTRA were applied onto soil cover layers (to be applied over seed beds), followed by sequential pipetting of Herbicide No. 1 and Antidote No. 15. The soil was mixed to homogeneity and spread over the seed beds followed by 0.6 cm of overhead irrigation.

corn [2] = assay: Example 26, field trials, pre-plant incorporation (PPI): corn growth reduction; type: in vivo; conditions: for maximum injury level (GR) / corn growth reduction (GR): PPI
Protocol: In order to better understand and to confirm the results of greenhouse tests with herbicidal compositions comprising representative compounds according to Formula I and an antidote with and without a co-herbicide, a large number of field trials were conducted. This example provides a summary of those field trials.
The primary purpose of the field trials summarized herein was to ascertain the amount of corn injury caused by a compound according to Formula I. viz. Herbicide No. 1, with and without a co-herbicide of the α-chloroacetanilide class, viz., Herbicide Nos. 6 and 7, and the extent that any corn injury could be safened by a dichloroacetamide antidotal compound, viz., Antidote No. 15.
Corn injury is generally expressed, in broad terms, in stand reduction, growth reduction, malformed plants and other more specific effects. For purposes of the summary here, the results of a plurality of field trials are expressed in terms of growth reduction (GR), i.e., a significant reduction in plant height of the corn stand. A common criteria for commercially-acceptable corn injury is an amount equal to or less than 10% malformed plants or stand reduction and for present reporting purposes, no greater than about 15% growth reduction. The corn injury/safening described for these field trials refers to commercially-unacceptable to commercially-acceptable performance.
In the field trials from a wide distribution of trial locations, soil types (all having in excess of 2% organic matter), climatic effects, etc., the test chemicals were applied as tank mixes in various modes of application, i.e., pre-plant incorporation (PPI) and preemergence surface application (PRE). Test plots were small plots with three replications in a randomized complete block design. Observations were made and recorded in a period of from 31-50 days after treatment.

COC(=O)c1c(Cl)nn(C)c1S(=O)(=O)NC(=O)Nc1nc(OC)cc(OC)n1 [No.1]
% Injury Corn (corn [1]; Herbicide No.1 0.56 kg/ha + ERADICANE EXTRA 2.24 kg/ha): 55%
% Injury Corn (corn [1]; Herbicide No.1 0.56 kg/ha + ERADICANE EXTRA 4.48 kg/ha): 65%
% Injury Corn (corn [1]; Herbicide No.1 0.56 kg/ha + ERADICANE EXTRA 6.72 kg/ha): 75%
% Injury Corn (corn [1]; Herbicide No.1 0.56 kg/ha + No. 4 2.24 kg/ha, no antidote): 75%
% Injury Corn (corn [1]; Herbicide No.1 0.56 kg/ha + No. 4 4.48 kg/ha, no antidote): 35%
% Injury Corn (corn [1]; Herbicide No.1 0.56 kg/ha + No. 4 6.72 kg/ha, no antidote): 85%
% Injury Corn (corn [1]; Herbicide No.1 0.56 kg/ha alone): 70%
% Injury Corn (corn [1]; Herbicide No.1 2.24 kg/ha + ERADICANE EXTRA 2.24 kg/ha): 90%
% Injury Corn (corn [1]; Herbicide No.1 2.24 kg/ha + ERADICANE EXTRA 4.48 kg/ha): 85%
% Injury Corn (corn [1]; Herbicide No.1 2.24 kg/ha + ERADICANE EXTRA 6.72 kg/ha): 95%
% Injury Corn (corn [1]; Herbicide No.1 2.24 kg/ha + No. 4 2.24 kg/ha, no antidote): 90%
% Injury Corn (corn [1]; Herbicide No.1 2.24 kg/ha + No. 4 4.48 kg/ha, no antidote): 70%
% Injury Corn (corn [1]; Herbicide No.1 2.24 kg/ha + No. 4 6.72 kg/ha, no antidote): 90%
% Injury Corn (corn [1]; Herbicide No.1 2.24 kg/ha alone): 85%

CC1(C)OC(c2ccco2)CN1C(=O)C(Cl)Cl (stereo not shown) [Antidote No. 15, Oxazolidine, 3-(dichloroacetyl)-5-(2-furanyl)-2,2-dimethyl]
% Injury Corn (corn [1]; Herbicide No.1 0.56 kg/ha + No. 4 2.24 kg/ha, Antidote No. 15 0.18 kg/ha): 5%
% Injury Corn (corn [1]; Herbicide No.1 0.56 kg/ha + No. 4 4.48 kg/ha, Antidote No. 15 0.35 kg/ha): 15%
% Injury Corn (corn [1]; Herbicide No.1 0.56 kg/ha + No. 4 6.78 kg/ha, Antidote No. 15 0.56 kg/ha): 0%
% Injury Corn (corn [1]; Herbicide No.1 2.24 kg/ha + No. 4 2.24 kg/ha, Antidote No. 15 0.18 kg/ha): 35%
% Injury Corn (corn [1]; Herbicide No.1 2.24 kg/ha + No. 4 4.48 kg/ha, Antidote No. 15 0.35 kg/ha): 15%
% Injury Corn (corn [1]; Herbicide No.1 2.24 kg/ha + No. 4 6.78 kg/ha, Antidote No. 15 0.56 kg/ha): 15%
corn injury level (GR) (corn [2]; Herbicide No. 1 0.14 kg/ha + Herbicide No. 6 + Antidote No. 15): 10.3%
corn injury level (GR) (corn [2]; Herbicide No. 1 0.28 kg/ha + Herbicide No. 6 + Antidote No. 15): 12.5%
corn injury level (GR) (corn [2]; Herbicide No. 1 0.7 kg/ha + Herbicide No. 6 + Antidote No. 15): 8.6%
maximum injury level (GR) (corn [2]; Herbicide No. 1 0.07 kg/ha + Herbicide No. 7 + Antidote No. 15 1:1): 22%
corn growth reduction (GR) (corn [2]; Herbicide No. 1 0.07 kg/ha + Herbicide No. 7 + Antidote No. 15 at 1:1 to Herbicide No. 1): 7.75%
maximum injury level (GR) (corn [2]; Herbicide No. 1 0.14 kg/ha + Herbicide No. 7 + Antidote No. 15 1:1): 26%
corn growth reduction (GR) (corn [2]; Herbicide No. 1 0.14 kg/ha + Herbicide No. 7 + Antidote No. 15 at 1:1 to Herbicide No. 1): 9.82%
safening of corn, assessment in words (corn [2]; field trials (PPI and PRE), under most conditions): effectively reduced corn GR injury

— patent EP0603240B1, “SAFENING HERBICIDAL PYRAZOLYLSULFONYLUREAS” (priority 1991, dated 1993)
